± gives the expanded uncertainty stated by the source.
Columns and labels:
[1] = Liquid; for viscosity / electrical conductivity: 100 kPa; for viscosity: Cone and plate viscometry; for electrical conductivity: Direct current cell with electrodes; for mass density: 101.33 kPa, Vibrating tube method
[2] = xn = mol fraction of the nth substance listed; details: 100 kPa, Liquid, x2 = 0; for viscosity: Cone and plate viscometry; for mass density: Vibrating tube method

Structure (SMILES): CCCn1cc[n+](C)c1.O=S(=O)([N-]S(=O)(=O)C(F)(F)F)C(F)(F)F
- viscosity ([1]; 293.15 K): 54.19 ± 1.1 mPa·s
- electrical conductivity ([1]; 293.15 K): 0.355 ± 0.011 S/m
- mass density ([1]; 293.15 K): 1479.32 ± 1.6 kg/m3
- viscosity ([1]; 298.15 K): 43.94 ± 0.9 mPa·s
- electrical conductivity ([1]; 298.15 K): 0.435 ± 0.013 S/m
- mass density ([1]; 298.15 K): 1474.24 ± 1.6 kg/m3
- viscosity ([1]; 303.15 K): 35.92 ± 0.74 mPa·s
- electrical conductivity ([1]; 303.15 K): 0.521 ± 0.016 S/m
- mass density ([1]; 303.15 K): 1469.4 ± 1.6 kg/m3
- viscosity ([1]; 308.15 K): 30 ± 0.62 mPa·s
- electrical conductivity ([1]; 308.15 K): 0.611 ± 0.018 S/m
- mass density ([1]; 308.15 K): 1464.43 ± 1.6 kg/m3
- viscosity ([1]; 313.15 K): 25.32 ± 0.52 mPa·s
- electrical conductivity ([1]; 313.15 K): 0.71 ± 0.021 S/m
- mass density ([1]; 313.15 K): 1459.44 ± 1.6 kg/m3
- viscosity ([1]; 318.15 K): 21.58 ± 0.44 mPa·s
- electrical conductivity ([1]; 318.15 K): 0.813 ± 0.024 S/m
- mass density ([1]; 318.15 K): 1454.63 ± 1.6 kg/m3
- viscosity ([1]; 323.15 K): 18.82 ± 0.39 mPa·s
- electrical conductivity ([1]; 323.15 K): 0.923 ± 0.028 S/m
- mass density ([1]; 323.15 K): 1449.73 ± 1.6 kg/m3

Structure (SMILES): O=C1CCCO1 [γ-butyrolactone] + CCCn1cc[n+](C)c1.O=S(=O)([N-]S(=O)(=O)C(F)(F)F)C(F)(F)F
- viscosity ([2]; 293.15 K): 1.92 ± 0.04 mPa·s
- mass density ([2]; 293.15 K): 1129.2 ± 1.6 kg/m3
- viscosity ([2]; 298.15 K): 1.73 ± 0.04 mPa·s
- mass density ([2]; 298.15 K): 1124.26 ± 1.6 kg/m3
- viscosity ([2]; 303.15 K): 1.63 ± 0.04 mPa·s
- mass density ([2]; 303.15 K): 1119.33 ± 1.6 kg/m3
- viscosity ([2]; 308.15 K): 1.52 ± 0.03 mPa·s
- mass density ([2]; 308.15 K): 1114.31 ± 1.6 kg/m3
- viscosity ([2]; 313.15 K): 1.42 ± 0.03 mPa·s
- mass density ([2]; 313.15 K): 1109.23 ± 1.6 kg/m3
- viscosity ([2]; 318.15 K): 1.35 ± 0.03 mPa·s
- mass density ([2]; 318.15 K): 1104.1 ± 1.6 kg/m3
- viscosity ([2]; 323.15 K): 1.3 ± 0.03 mPa·s
- mass density ([2]; 323.15 K): 1098.88 ± 1.6 kg/m3
